Results taken from ChEMBL document CHEMBL3886227, “Multiheteroaryl compounds as inhibitors of H-PGDS and their use for treating prostaglandin D2 mediated diseases” (2015).
pIC50: −log10 of the molar value.

Target: Hematopoietic prostaglandin D synthase (Homo sapiens, UniProt O60760)
Experiment: Fluorescence Polarization Binding Assay (FPBA): This assay essentially is available from Cayman Chemical Company as Catalog item #600007. The test data reported for the aforementioned Examples (H-PGDS FPBA IC50) were generated using a 96-well, instead of the 384-well, format.Detection analyte and H-PGDS-MBP fusion enzyme were incubated in the presence of reduced glutathione (5 mM) for 60-90 minutes at room temperature and FP was measured using a TECAN SAFIRE 2 plate reader equipped with absorbance, fluorescence, fluorescence polarization and FRET capabilities. Assays were performed in 96-well microtiter plates in 100 µL of total sample volume. Excitation and emission wavelengths appropriate for the employed detection analyte were used.

Sequence of Hematopoietic prostaglandin D synthase (O60760 whole entry, the tested form may be a part): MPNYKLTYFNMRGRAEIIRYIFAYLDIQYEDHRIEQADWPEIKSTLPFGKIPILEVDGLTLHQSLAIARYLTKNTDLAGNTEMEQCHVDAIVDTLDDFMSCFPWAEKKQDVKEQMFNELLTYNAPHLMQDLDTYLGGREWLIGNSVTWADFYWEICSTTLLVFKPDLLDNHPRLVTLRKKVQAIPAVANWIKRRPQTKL

A pIC50 of 5.70 was found for `COC(=O)c1cc(-c2cnc(Oc3ccccc3)nc2)[nH]n1` in this work.
